Some test systems named below: ACHN; SNB-19; LOX IMVI; EKVX; SK-MEL-28; DU-145; UACC-257; HT-29; SK-OV-3; SNB-75; MCF7; BT-549; HOP-92; M14; NCI/ADR-RES; CCRF-CEM; K562.
Common to all, as to assay: NCI anticancer screen, dose series, 48 h

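Where inhibition never reached the appropriate level, the endpoint shown equals the highest concentration tested. Otherwise, values were interpolated linearly from a five-concentration, 48-hour dose response in 96-well plates. GI50 = concentration required for 50% inhibition of growth.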 The source made the active and inactive calls. No stated cut-off is given here; in the data, active = GI50 up to about 1.1 µM and inactive = higher. Bounds are passed on as bounds.

Turning to `COc1ccc2c(c1)C(=O)CC(N)C2` (configuration not stated), the GI50 with ACHN was > 100 µM (inactive); in the experiment on SNB-19, > 100 µM (inactive); in the experiment with LOX IMVI it was > 100 µM (inactive); in the experiment with EKVX it was 57 µM (inactive); in the experiment with SK-MEL-28, > 100 µM (inactive); with DU-145, > 100 µM (inactive). For the same molecule, the GI50 in the experiment with UACC-257 is > 100 µM (inactive); in the experiment on HT-29, > 100 µM (inactive); with SK-OV-3 it was > 100 µM (inactive); in the experiment with SNB-75 it was 25.1 µM (inactive); in the experiment with MCF7, > 100 µM (inactive); with BT-549, > 100 µM (inactive). In addition, the GI50 was > 100 µM (inactive) with HOP-92; > 100 µM (inactive) in the experiment with M14; > 100 µM (inactive) with NCI/ADR-RES; 64.9 µM (inactive) in the experiment on CCRF-CEM; > 100 µM (inactive) in the experiment on K562.
Regarding `C[C@]12CC[C@@H]3c4ccc(OC(=O)c5ccccc5)cc4CC[C@H]3[C@@H]1CCC2OC(=O)c1cccc2c(=O)c3ccccc3[nH]c12` (some centres not stated), the GI50 with ACHN is 22.3 µM (inactive); in the experiment on SNB-19, 27.4 µM (inactive); in the experiment with LOX IMVI, 16.3 µM (inactive); with EKVX, 9.38 µM (inactive); in the experiment on SK-MEL-28, 15.8 µM (inactive); with DU-145, 19.8 µM (inactive). For the same molecule, the GI50 was 20.3 µM (inactive) in the experiment on UACC-257; 7.21 µM (inactive) with HT-29; 30.4 µM (inactive) with SK-OV-3; 23 µM (inactive) in the experiment on SNB-75; 12.2 µM (inactive) with MCF7; 18.2 µM (inactive) with BT-549. In addition, the GI50 is 18 µM (inactive) with HOP-92; 17.1 µM (inactive) in the experiment on M14; 18 µM (inactive) in the experiment with NCI/ADR-RES; 24.7 µM (inactive) with CCRF-CEM; 60 µM (inactive) with K562.
For the molecule `Cc1nc2ccccc2c(=O)n1NC(=O)c1ccccc1[N+](=O)[O-]`, the GI50 was > 100 µM (inactive) in the experiment with ACHN; > 100 µM (inactive) in the experiment with SNB-19; > 100 µM (inactive) with LOX IMVI; 71.4 µM (inactive) in the experiment on EKVX; > 100 µM (inactive) in the experiment on SK-MEL-28; > 100 µM (inactive) with DU-145. Besides, the GI50 in the experiment with UACC-257 is > 100 µM (inactive); in the experiment with HT-29, > 100 µM (inactive); in the experiment with SK-OV-3, > 100 µM (inactive); in the experiment on SNB-75, 81.5 µM (inactive); with MCF7, > 100 µM (inactive); in the experiment with BT-549, > 100 µM (inactive). The GI50 in the experiment on HOP-92, with M14, in the experiment on NCI/ADR-RES, in the experiment on CCRF-CEM and in the experiment on K562 was > 100 µM (inactive) in each case.
As for `O=C(c1ccco1)N1CCN(C(=O)c2ccco2)C1=S`, the GI50 in the experiment on ACHN was 8.07 µM (inactive); with SNB-19 it was 24.4 µM (inactive); in the experiment with LOX IMVI, 3.59 µM (inactive); in the experiment with EKVX, 16.1 µM (inactive); in the experiment on SK-MEL-28, 5.87 µM (inactive); in the experiment with DU-145, 2.61 µM (inactive). In addition, the GI50 with UACC-257 is 4.9 µM (inactive); in the experiment with HT-29 it was 8.05 µM (inactive); in the experiment on SK-OV-3, 17.3 µM (inactive); with SNB-75, 10.4 µM (inactive); with MCF7 it was 2.99 µM (inactive); in the experiment with BT-549, 8.47 µM (inactive). The GI50 was 7.23 µM (inactive) in the experiment with HOP-92; 6.22 µM (inactive) in the experiment on M14; 21.1 µM (inactive) in the experiment with NCI/ADR-RES; 1.77 µM (inactive) in the experiment with CCRF-CEM; 1.87 µM (inactive) with K562.
`COc1cccc2c1C(=O)c1c(O)c3c(c(O)c1C2=O)C[C@@](O)(C(=O)CO)C[C@@H]3OC1CC2C(OCN3CN2COC2C(C)OC(O[C@H]4C[C@](O)(C(=O)CO)Cc5c(O)c6c(c(O)c54)C(=O)c4c(OC)cccc4C6=O)CC23)C(C)O1` (some centres not stated): the GI50 is 0.0634 µM (active) in the experiment on ACHN; 0.0272 µM (active) with SNB-19; 0.0134 µM (active) with LOX IMVI; 0.203 µM (active) with EKVX; 0.157 µM (active) in the experiment on SK-MEL-28; 0.0265 µM (active) in the experiment on DU-145. Further, the GI50 in the experiment with UACC-257 is 0.05 µM (active); in the experiment on HT-29, 0.0428 µM (active); in the experiment on SK-OV-3, 0.0681 µM (active); in the experiment with SNB-75, 0.0151 µM (active); in the experiment with MCF7, 0.0179 µM (active); with BT-549 it was 0.157 µM (active). The GI50 with HOP-92 was 0.0308 µM (active); with M14, 0.0861 µM (active); in the experiment with NCI/ADR-RES, 0.251 µM (active); in the experiment on CCRF-CEM it was 0.00916 µM (active); with K562, 0.0684 µM (active).
Consider `CC(=O)NC1=CC(=O)c2cc(C)cc(O)c2C1=O`, for which the GI50 was 9.66 µM (inactive) in the experiment with ACHN; 28.1 µM (inactive) in the experiment with SNB-19; 1.53 µM (inactive) in the experiment on LOX IMVI; 17.2 µM (inactive) in the experiment with EKVX; 0.822 µM (active) in the experiment on SK-MEL-28; 5.82 µM (inactive) in the experiment with DU-145. The GI50 was 1.85 µM (inactive) with UACC-257; 16.9 µM (inactive) in the experiment with HT-29; > 63.2 µM (inactive) with SK-OV-3; 18.7 µM (inactive) in the experiment on SNB-75; 2.39 µM (inactive) in the experiment on MCF7; 7.06 µM (inactive) in the experiment on BT-549. The GI50 in the experiment with HOP-92 was 8.73 µM (inactive); in the experiment with M14, 1.75 µM (inactive); in the experiment with NCI/ADR-RES it was 5.77 µM (inactive); in the experiment with CCRF-CEM it was 4.47 µM (inactive); in the experiment on K562, 3.74 µM (inactive).
Take `O=C(NCCCCN(CCCNC(=O)C(F)(F)F)Cc1ccc2ccccc2c1)C(F)(F)F`: the GI50 was 24.3 µM (inactive) in the experiment with ACHN; 14 µM (inactive) with SNB-19; 14.1 µM (inactive) with LOX IMVI; 16.4 µM (inactive) in the experiment with EKVX; 16.7 µM (inactive) with SK-MEL-28; 21 µM (inactive) in the experiment with DU-145. Also, the GI50 was 17.5 µM (inactive) in the experiment with UACC-257; 13.7 µM (inactive) in the experiment with HT-29; 23 µM (inactive) in the experiment with SK-OV-3; 11.5 µM (inactive) in the experiment with SNB-75; 14.7 µM (inactive) with MCF7; 17.1 µM (inactive) in the experiment on BT-549. The GI50 in the experiment with HOP-92 is 16.7 µM (inactive); in the experiment with M14 it was 16.7 µM (inactive); in the experiment with NCI/ADR-RES it was 14.5 µM (inactive); in the experiment on CCRF-CEM it was > 10 µM (inactive); with K562 it was 16.7 µM (inactive).
Consider `CC1(C)CC(=O)C2=C(C1)NC(SCC(=O)O)=C(C#N)C2c1ccc(Br)cc1` (configuration not stated), for which the GI50 in the experiment with ACHN, in the experiment on SNB-19, with LOX IMVI, with EKVX, in the experiment with SK-MEL-28 and in the experiment with DU-145 was > 100 µM (inactive) throughout. The GI50 in the experiment on UACC-257, in the experiment on HT-29, with SK-OV-3, in the experiment with SNB-75, in the experiment with MCF7 and with BT-549 was > 100 µM (inactive) throughout. Moreover, the GI50 in the experiment on HOP-92 was 27.4 µM (inactive); in the experiment on M14 it was > 100 µM (inactive); in the experiment with NCI/ADR-RES, > 100 µM (inactive); in the experiment with CCRF-CEM, > 100 µM (inactive).
As to `CCc1[nH]nc(C(N)=O)c1/N=N/N(C)C`, the GI50 is 36.5 µM (inactive) in the experiment with ACHN; > 100 µM (inactive) with SNB-19; 43.2 µM (inactive) with LOX IMVI; 57.5 µM (inactive) with EKVX; > 100 µM (inactive) in the experiment with SK-MEL-28; 46.2 µM (inactive) in the experiment on DU-145. Besides, the GI50 with UACC-257 was > 100 µM (inactive); in the experiment on HT-29 it was > 100 µM (inactive); with SK-OV-3, 91.6 µM (inactive); in the experiment with SNB-75 it was 65.9 µM (inactive); in the experiment with MCF7 it was 30.9 µM (inactive); in the experiment on BT-549, 21.8 µM (inactive). The GI50 is 36.4 µM (inactive) in the experiment on HOP-92; > 100 µM (inactive) in the experiment on M14; 94.8 µM (inactive) with NCI/ADR-RES; 28.2 µM (inactive) in the experiment with CCRF-CEM; 1.13 µM (inactive) with K562.
As for `CN(CCCN1CCCC1)CCCN(C)C(=O)Cc1ccc(Cl)c(Cl)c1`, the GI50 in the experiment on ACHN is 27.6 µM (inactive); with SNB-19, 26.9 µM (inactive); in the experiment on LOX IMVI, 12.7 µM (inactive); in the experiment on EKVX, 24.1 µM (inactive); in the experiment on SK-MEL-28, 1.99 µM (inactive); in the experiment with DU-145, 43.9 µM (inactive). The GI50 with UACC-257 is 2.55 µM (inactive); in the experiment on HT-29, 3.77 µM (inactive); in the experiment on SK-OV-3, 27.7 µM (inactive); in the experiment on SNB-75, 18.5 µM (inactive); in the experiment on MCF7, 16.6 µM (inactive); with BT-549 it was 18.6 µM (inactive). Besides, the GI50 is 8.63 µM (inactive) in the experiment with HOP-92; 5.47 µM (inactive) with M14; > 73.3 µM (inactive) in the experiment with NCI/ADR-RES; 6.85 µM (inactive) with CCRF-CEM; 5.75 µM (inactive) in the experiment with K562.
Consider `COC(=O)c1sc(=S)sc1SCc1ccccc1CSc1sc(=S)sc1C(=O)OC`, for which the GI50 in the experiment on ACHN is > 100 µM (inactive); in the experiment with SNB-19 it was 77.1 µM (inactive); with LOX IMVI it was > 100 µM (inactive); in the experiment on EKVX, > 100 µM (inactive); in the experiment with SK-MEL-28, > 100 µM (inactive); in the experiment with DU-145, > 100 µM (inactive). Further, the GI50 is > 100 µM (inactive) with UACC-257; > 100 µM (inactive) in the experiment on HT-29; 46.6 µM (inactive) in the experiment with SK-OV-3; 38.6 µM (inactive) in the experiment on SNB-75; > 100 µM (inactive) in the experiment with MCF7; > 100 µM (inactive) in the experiment on BT-549. Moreover, the GI50 in the experiment with HOP-92 was > 100 µM (inactive); with M14, > 100 µM (inactive); in the experiment on NCI/ADR-RES, > 100 µM (inactive); in the experiment on CCRF-CEM, 27.5 µM (inactive); with K562, 38.5 µM (inactive).
For the molecule `O=c1c2cccnc2[nH]c2ccc3scnc3c12`, the GI50 is 1.87 µM (inactive) in the experiment on ACHN; > 10 µM (inactive) in the experiment on SNB-19; 3.36 µM (inactive) in the experiment with LOX IMVI; > 10 µM (inactive) in the experiment on EKVX; > 10 µM (inactive) with SK-MEL-28; > 10 µM (inactive) in the experiment with DU-145. Besides, the GI50 is > 10 µM (inactive) with UACC-257; 4.72 µM (inactive) with HT-29; > 10 µM (inactive) with SK-OV-3; 6.31 µM (inactive) in the experiment with SNB-75; > 10 µM (inactive) in the experiment with MCF7; > 10 µM (inactive) in the experiment with BT-549. The GI50 with HOP-92 is 8.17 µM (inactive); in the experiment with M14 it was 8.07 µM (inactive); in the experiment on NCI/ADR-RES, 8.91 µM (inactive); with CCRF-CEM, 5.27 µM (inactive).
